In the supplement of paper PMC10290057:
Structures can show the parent of a compound that is named as a salt.

How the values were obtained:
[1] = tested on: HCT116; assay: AC50 cell viability (CellTiter-Glo); higher = less potent; settings: 48 h
[2] = tested on: HCT116; assay: efficacy (fitted maximal change in viability relative to DMSO control); higher = less cytotoxic (negative = loss of viability); settings: 48 h
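Throughout, for AC50 cell viability (CellTiter-Glo): HCT116 colorectal carcinoma cells screened at five concentrations per compound, luminescent viability scaled between DMSO wells and empty wells on each plate, curves fitted per compound.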
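Throughout, for efficacy (fitted maximal change in viability relative to DMSO control): Luminescence-based viability readout, five doses per compound, normalized against on-plate DMSO and empty-well controls, followed by dose-response curve fitting for every drug.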

Compound | AC50 cell viability [1] [µM] | efficacy [2] [%]
COc1ccc(C(=O)CC2(O)C(=O)Nc3c(Cl)ccc(Cl)c32)cc1 (stereo unspecified) [YK-4-279] | 1.18 | -57.1
COc1ccc(N2C(=O)N(c3c(C)cccc3Cl)Cc3cnc(Nc4ccc(C5CCN(C)CC5)cc4OC)nc32)nc1 [YKL-05-099] | 10.5 | -99.4
CN(C)c1ccc2cc(C(=O)N[C@@H](CCCNC(=N)CCl)C(=O)NCc3ccccc3)ccc2c1 [YW3-56] | 20.9 | -56.2
FC(F)c1nc2ccccc2n1-c1nc(N2CCOCC2)nc(N2CCOCC2)n1 [ZSTK-474] | 0.742 | -58.2
CC1(CN2CCC(n3c(=O)[nH]c4ccccc43)CC2)OCc2ccccc2-n2cccc21 (stereo unspecified) [Zaldaride maleate] | 20.9 | -74.1
Cl.Cl.Cl.O[C@@H](COc1cccc2ncccc12)CN1CCN([C@@H]2c3ccccc3[C@@H]3[C@H](c4ccccc42)C3(F)F)CC1 [Zosuquidar trihydrochloride] | 16.6 | -97
CC1(C)CC\C2=C(/O1)C3=C(C=CC=C3)C(=O)C2=O [beta-Lapachone] | 14.8 | -103
CC1CCN(c2cc(N3CCN(C)CC3)ccc2NC(=O)c2cc(C#N)c[nH]2)CC1 [c-FMS Inhibitor] | 7.42 | -34
